From PubChem BioAssay (NCI)
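Where inhibition never reached the appropriate level, the endpoint shown equals the highest concentration tested. Otherwise, values were interpolated linearly from a five-concentration, 48-hour dose response in 96-well plates. GI50 marks 50% less growth. TGI is the concentration that stops growth completely.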 Starred links: 1 amine or outer side, 2 acyl side, 3 side chain; linkers in the order of their positions; H or OH if unused. Non-standard residues stand in square brackets, D forms with d. Residues, ends and D or L forms follow the SMILES beside them. *: point of attachment. X14 = C/C=C/CC(C)C(O)[C@H](N[*:1])C(=O)[*:2]; Decanoyl = CCCCCCCCCC(=O)*; Leu(ol) = CC(C)C[C@H](N)CO; Iva = CC[C@](C)(N)C(=O)O; Aib = CC(C)(N)C(=O)O

Legend:
Experiment in all cases: inhibition of tumour cell growth, NCI panel, 48 h
[1] = system: 786-0 renal
[2] = system: A498 renal
[3] = system: A549 NSCLC
[4] = system: ACHN renal
[5] = system: BT-549 breast
[6] = system: CAKI-1 renal
[7] = system: CCRF-CEM leukemia
[8] = system: COLO 205 colon
[9] = system: DU-145 prostate
[10] = system: EKVX NSCLC
[11] = system: HCC-2998 colon
[12] = system: HCT-116 colon
[13] = system: HCT-15 colon
[14] = system: HL-60(TB) leukemia
[15] = system: HOP-92 NSCLC
[16] = system: HS 578T breast
[17] = system: HT29 colon
[18] = system: IGROV1 ovarian
[19] = system: K-562 leukemia
[20] = system: KM12 colon
[21] = system: LOX IMVI melanoma
[22] = system: M14 melanoma
[23] = system: MALME-3M melanoma
[24] = system: MCF7 breast
[25] = system: MDA-MB-231 breast
[26] = system: MDA-MB-435
[27] = system: MOLT-4 leukemia
[28] = system: NCI-H226 lung
[29] = system: NCI-H460 lung
[30] = system: NCI-H522 lung
[31] = system: NCI/ADR-RES ovarian
[32] = system: OVCAR-3 ovarian
[33] = system: OVCAR-4 ovarian
[34] = system: OVCAR-5 ovarian
[35] = system: OVCAR-8 ovarian
[36] = system: PC-3 prostate
[37] = system: RPMI-8226 leukemia
[38] = system: RXF 393 renal
[39] = system: SF-268 CNS
[40] = system: SF-295 CNS
[41] = system: SF-539 CNS
[42] = system: SK-MEL-2 melanoma
[43] = system: SK-MEL-28 melanoma
[44] = system: SK-MEL-5 melanoma
[45] = system: SK-OV-3 ovarian
[46] = system: SN12C renal
[47] = system: SNB-19 CNS
[48] = system: SNB-75 CNS
[49] = system: SR leukemia
[50] = system: SW-620 colon
[51] = system: TK-10 renal
[52] = system: U251 CNS
[53] = system: UACC-257 melanoma
[54] = system: UACC-62 melanoma
[55] = system: UO-31 renal

C/C=C/CC(C)C(O)[C@H](NC(=O)[C@@H]1CCCN1C(=O)C(C)(C)NC(=O)CCCCCCCCC)C(=O)N[C@@](C)(CC)C(=O)N[C@@H](CCC(N)=O)C(=O)N[C@H](CCC(N)=O)C(=O)NC(C)(C)C(=O)N[C@@](C)(CC)C(=O)N[C@@H](CCC(N)=O)C(=O)N[C@H](CC(C)C)C(=O)N[C@H](CO)CC(C)C (stereo partly drawn) (Decanoyl-[Aib]P[X14][Iva]Q[dQ][Aib][Iva]Q[dL][Leu(ol)])
GI50 [1]: 284 nM | TGI [1]: 1440 nM | GI50 [2]: 242 nM | TGI [2]: 721 nM | GI50 [3]: 95.6 nM | TGI [3]: 1160 nM | GI50 [4]: 87.7 nM | TGI [4]: 1130 nM | GI50 [5]: 304 nM | TGI [5]: 829 nM | GI50 [6]: 206 nM | TGI [6]: 659 nM | GI50 [7]: 152 nM | TGI [7]: 1180 nM | GI50 [8]: 49 nM | TGI [8]: 187 nM | GI50 [9]: 318 nM | TGI [9]: 1530 nM | GI50 [10]: 173 nM | TGI [10]: 1430 nM | GI50 [11]: 107 nM | TGI [11]: 1600 nM | GI50 [12]: 87 nM | TGI [12]: 1200 nM | GI50 [13]: 297 nM | TGI [13]: 1270 nM | GI50 [14]: 29.1 nM | TGI [14]: 114 nM | TGI [15]: 83.6 nM | GI50 [16]: 297 nM | TGI [16]: 1720 nM | GI50 [17]: 97.4 nM | TGI [17]: 1350 nM | GI50 [18]: 406 nM | TGI [18]: 1750 nM | GI50 [19]: 41.8 nM | TGI [19]: 1090 nM | GI50 [20]: 75.2 nM | TGI [20]: 1170 nM | GI50 [21]: 164 nM | TGI [21]: 697 nM | GI50 [22]: 61.5 nM | TGI [22]: 1320 nM | GI50 [23]: 30.9 nM | TGI [23]: 643 nM | GI50 [24]: 59.4 nM | TGI [24]: 1160 nM | GI50 [25]: 274 nM | TGI [25]: 990 nM | GI50 [26]: 111 nM | TGI [26]: 1200 nM | GI50 [27]: 259 nM | TGI [27]: 1140 nM | GI50 [28]: 182 nM | TGI [28]: 1480 nM | GI50 [29]: 94 nM | TGI [29]: 1150 nM | GI50 [30]: 55 nM | TGI [30]: 720 nM | GI50 [31]: 985 nM | TGI [31]: 2330 nM | GI50 [32]: 41.7 nM | TGI [32]: 1310 nM | GI50 [33]: 82.5 nM | TGI [33]: 1870 nM | GI50 [34]: 208 nM | TGI [34]: 1290 nM | GI50 [35]: 199 nM | TGI [35]: 1330 nM | GI50 [36]: 52.7 nM | TGI [36]: 1050 nM | GI50 [37]: 29.5 nM | TGI [37]: 140 nM | GI50 [38]: 259 nM | TGI [38]: 1260 nM | GI50 [39]: 281 nM | TGI [39]: 1360 nM | GI50 [40]: 48.8 nM | TGI [40]: 754 nM | GI50 [41]: 338 nM | TGI [41]: 1310 nM | GI50 [42]: 60.4 nM | TGI [42]: 688 nM | GI50 [43]: 62.7 nM | TGI [43]: 2000 nM | GI50 [44]: 40.7 nM | TGI [44]: 200 nM | GI50 [45]: 233 nM | TGI [45]: 873 nM | GI50 [46]: 211 nM | TGI [46]: 1110 nM | GI50 [47]: 134 nM | TGI [47]: 1350 nM | GI50 [48]: 174 nM | TGI [48]: 803 nM | GI50 [49]: 253 nM | TGI [49]: 943 nM | GI50 [50]: 89.2 nM | TGI [50]: 1330 nM | GI50 [51]: 67.5 nM | TGI [51]: 1530 nM | GI50 [52]: 54.8 nM | TGI [52]: 1200 nM | GI50 [53]: 62.1 nM | TGI [53]: 758 nM | GI50 [54]: 103 nM | TGI [54]: 1470 nM | GI50 [55]: 212 nM | TGI [55]: 1110 nM
